We go through eleven compounds from US8404677B2, “Kinase inhibitors” (Genosco, priority 2009, dated 2013).

Broadly, the IC50 is the concentration that inhibits the measured activity by half. The term inhibition denotes the change of the read-out against control, counted positive when it falls.

One experiment has as its target T1, truncated human JAK2 (Homo sapiens, UniProt O60674).
T1 construct: truncated human FAK, RET, FLT3, JAK2, and LRRK2 (CARNA BIOSCIENCES™); purchased Carna Biosciences
In words: Inhibition of enzymatic kinase activity (LANCE Ulight). It counts as biochemical. The protocol: (§1) Inhibition of Enzymatic SYK, ZAP70, PYK2, FAK, PIM1, RET, FLT3, JAK2 and LRRK2 Kinase Activity
(§2) Compounds of the invention were initially diluted to 10 mM in 100% DMSO (CALBIOCHEM™) for storage and made into kinase buffer solution to create a compound concentration ranging from 1 uM and 10 uM. Serial dilutions of compounds of the invention were dispensed into a 96-well plate (GREINER BIOSCIENCES™) at 6 μL each. Purified full-length human SYK, ZAP70, PIM1, PYK2 and truncated human FAK, RET, FLT3, JAK2, and LRRK2 (CARNA BIOSCIENCES™) were diluted in kinase buffer and added to the compound solutions and pre-incubated for 30 minutes at room temperature (1 hour for PYK2). […] The reaction mixture was incubated for 1 hour (2 hours for PYK2). Following the incubation, the stop solution made with EDTA, water, and Lance detection buffer ([…]™) was added (12 μL each) to stop phosphorylation.
(In general: In TR-FRET formats the signal depends on donor and acceptor labels being close together.)

A further experiment has as its target T2, truncated human FLT3 (Homo sapiens, UniProt P36888).
T2 construct: truncated human FAK, RET, FLT3, JAK2, and LRRK2 (CARNA BIOSCIENCES™); purchased Carna Biosciences
T2 sequence (P36888 564-993 limits assumed): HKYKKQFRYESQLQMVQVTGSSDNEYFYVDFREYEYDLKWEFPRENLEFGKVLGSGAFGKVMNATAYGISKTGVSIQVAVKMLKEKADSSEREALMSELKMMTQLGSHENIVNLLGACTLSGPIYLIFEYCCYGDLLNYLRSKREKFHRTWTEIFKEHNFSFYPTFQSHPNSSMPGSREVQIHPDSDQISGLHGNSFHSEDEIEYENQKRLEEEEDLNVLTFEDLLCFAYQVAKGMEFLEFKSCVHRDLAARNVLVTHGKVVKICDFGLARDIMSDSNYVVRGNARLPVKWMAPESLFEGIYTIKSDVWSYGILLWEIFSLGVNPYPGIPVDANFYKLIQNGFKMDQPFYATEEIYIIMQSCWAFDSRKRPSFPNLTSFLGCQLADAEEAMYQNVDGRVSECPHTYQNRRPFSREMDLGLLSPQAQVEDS
The experiment is described as above. It counts as biochemical. As to the method: as §1, §2

The next experiment has as its target T3, truncated human RET (Homo sapiens, UniProt P07949).
T3 construct: truncated human FAK, RET, FLT3, JAK2, and LRRK2 (CARNA BIOSCIENCES™); purchased Carna Biosciences
T3 sequence (P07949 658-1114 limits assumed): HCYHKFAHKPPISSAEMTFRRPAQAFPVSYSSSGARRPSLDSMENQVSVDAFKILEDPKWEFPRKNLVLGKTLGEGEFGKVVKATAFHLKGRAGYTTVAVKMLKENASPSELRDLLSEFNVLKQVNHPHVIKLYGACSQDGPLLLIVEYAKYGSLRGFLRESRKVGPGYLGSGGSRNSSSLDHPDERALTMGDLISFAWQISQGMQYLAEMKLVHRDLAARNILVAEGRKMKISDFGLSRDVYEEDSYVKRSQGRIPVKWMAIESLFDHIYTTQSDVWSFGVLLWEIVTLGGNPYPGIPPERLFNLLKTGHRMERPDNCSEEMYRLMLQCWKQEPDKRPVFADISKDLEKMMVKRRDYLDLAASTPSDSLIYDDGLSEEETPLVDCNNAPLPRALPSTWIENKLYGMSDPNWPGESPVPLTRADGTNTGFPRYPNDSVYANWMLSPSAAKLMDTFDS
Described as above. The format is biochemical. As to the method:
as §1, §2

Another experiment addresses PYK2 (Homo sapiens, UniProt Q14289). Described as above. The format is biochemical. Also noted: Purified full-length human SYK, ZAP70, PIM1, PYK2; purchased Carna Biosciences. The following applies: for inhibition at 1 µM: at 1 μM concentration, read-out: PYK2 percentage inhibition; for IC50: read-out: PYK2 molar inhibition (IC50). The protocol:
as §1, §2

A further experiment deals with SYK (Homo sapiens, UniProt P43405). Described as above. The format is biochemical. The settings on record: for inhibition at 1 µM: at 1 μM concentration, read-out: SYK percentage inhibition; for IC50: read-out: SYK molar inhibition (IC50). Also noted: Purified full-length human SYK, ZAP70, PIM1, PYK2; purchased Carna Biosciences. The protocol:
as §1, §2

For another experiment, the target named is T4, truncated human FAK (Homo sapiens, UniProt Q05397).
T4 construct: truncated human FAK, RET, FLT3, JAK2, and LRRK2 (CARNA BIOSCIENCES™); purchased Carna Biosciences
Described as above. The format is biochemical. The settings on record: for inhibition at 1 µM: at 1 μM concentration, read-out: FAK percentage inhibition; for IC50: read-out: FAK molar inhibition (IC50). The protocol:
as §1, §2

In the next experiment the target is T5, human ZAP70 (Homo sapiens, UniProt P43403).
T5 construct: Purified full-length human SYK, ZAP70, PIM1, PYK2; purchased Carna Biosciences
T5 sequence (P43403 1-619): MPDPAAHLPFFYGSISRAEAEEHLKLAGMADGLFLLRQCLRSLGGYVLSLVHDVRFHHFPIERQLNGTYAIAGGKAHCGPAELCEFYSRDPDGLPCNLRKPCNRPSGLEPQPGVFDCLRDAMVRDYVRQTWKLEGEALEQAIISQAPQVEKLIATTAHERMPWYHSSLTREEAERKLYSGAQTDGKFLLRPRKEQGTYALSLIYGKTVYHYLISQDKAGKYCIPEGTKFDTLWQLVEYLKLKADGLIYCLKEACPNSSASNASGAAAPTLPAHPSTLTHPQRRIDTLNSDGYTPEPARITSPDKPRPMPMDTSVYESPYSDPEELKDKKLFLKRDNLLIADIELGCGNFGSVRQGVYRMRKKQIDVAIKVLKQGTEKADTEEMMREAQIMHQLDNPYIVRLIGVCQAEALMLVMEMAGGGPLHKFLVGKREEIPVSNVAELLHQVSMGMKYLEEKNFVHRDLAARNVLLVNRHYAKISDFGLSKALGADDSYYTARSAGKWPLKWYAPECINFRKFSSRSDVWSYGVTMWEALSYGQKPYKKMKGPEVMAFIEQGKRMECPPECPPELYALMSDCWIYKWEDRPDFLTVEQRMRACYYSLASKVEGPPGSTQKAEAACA
Described as above. It counts as biochemical. The following applies: at 1 μM concentration; read-out: ZAP70 percentage inhibition. As to the method: as §1, §2

The target of a further experiment is T6, human PIM1 (Homo sapiens, UniProt P11309).
T6 construct: Purified full-length human SYK, ZAP70, PIM1, PYK2; purchased Carna Biosciences
The description is as above. The format is biochemical. The settings on record: at 1 μM concentration; read-out: PIM1 percentage inhibition. As to the method:
as §1
as §2, with “phosphorylation. […] Substrate phosphorylation was a function of the 665 nm emission measured following the addition of the detection solution and 50 minutes of incubation.” for “phosphorylation.”

Experiment [1] has as its system TNF-α release in THP-1 cells, IgG stimulation. Description: SYK dependent TNF-α release assay (IgG stimulation). It counts as cell-based, human. The following applies: for percentage inhibition of TNF-α release compared with R406: IgG stimulated release, 0.3 μM. As to the method:
Compounds of the invention were tested for their TNF-α release effect on THP-1 cells. For SYK dependent TNF-α release assay (i.e., via IgG stimulation), THP-1 cells derived from human monocytic cells were obtained from the American Type Culture Collection (ATCC, Manassas, Va.). This cell line was maintained with an Roswell Park Memorial Institute (RPMI) medium (GIBCO™) containing 10 fetal bovine serum (FBS; GIBCO™) and 0.05 mM 2-mercaptoethanol. The THP-1 cells were seeded at 1×10^5 cells/100 μL/well into human IgG ([…], INVITROGEN™)-coated 96 well culture plate, and serially diluted compound was then added. After an 18-hour incubation period at 37° C., supernatants were collected for the determination of the TNF-α level by enzyme-linked immunosorbent assay (ELISA), and the remaining cells were subjected to an MTT (yellow tetrazolium salt) assay to determine the cytotoxic effects of compound.

The structures appear in SMILES notation. Structures can show the parent of a compound that is named as a salt.

PYK2, sequence (Q14289 whole entry): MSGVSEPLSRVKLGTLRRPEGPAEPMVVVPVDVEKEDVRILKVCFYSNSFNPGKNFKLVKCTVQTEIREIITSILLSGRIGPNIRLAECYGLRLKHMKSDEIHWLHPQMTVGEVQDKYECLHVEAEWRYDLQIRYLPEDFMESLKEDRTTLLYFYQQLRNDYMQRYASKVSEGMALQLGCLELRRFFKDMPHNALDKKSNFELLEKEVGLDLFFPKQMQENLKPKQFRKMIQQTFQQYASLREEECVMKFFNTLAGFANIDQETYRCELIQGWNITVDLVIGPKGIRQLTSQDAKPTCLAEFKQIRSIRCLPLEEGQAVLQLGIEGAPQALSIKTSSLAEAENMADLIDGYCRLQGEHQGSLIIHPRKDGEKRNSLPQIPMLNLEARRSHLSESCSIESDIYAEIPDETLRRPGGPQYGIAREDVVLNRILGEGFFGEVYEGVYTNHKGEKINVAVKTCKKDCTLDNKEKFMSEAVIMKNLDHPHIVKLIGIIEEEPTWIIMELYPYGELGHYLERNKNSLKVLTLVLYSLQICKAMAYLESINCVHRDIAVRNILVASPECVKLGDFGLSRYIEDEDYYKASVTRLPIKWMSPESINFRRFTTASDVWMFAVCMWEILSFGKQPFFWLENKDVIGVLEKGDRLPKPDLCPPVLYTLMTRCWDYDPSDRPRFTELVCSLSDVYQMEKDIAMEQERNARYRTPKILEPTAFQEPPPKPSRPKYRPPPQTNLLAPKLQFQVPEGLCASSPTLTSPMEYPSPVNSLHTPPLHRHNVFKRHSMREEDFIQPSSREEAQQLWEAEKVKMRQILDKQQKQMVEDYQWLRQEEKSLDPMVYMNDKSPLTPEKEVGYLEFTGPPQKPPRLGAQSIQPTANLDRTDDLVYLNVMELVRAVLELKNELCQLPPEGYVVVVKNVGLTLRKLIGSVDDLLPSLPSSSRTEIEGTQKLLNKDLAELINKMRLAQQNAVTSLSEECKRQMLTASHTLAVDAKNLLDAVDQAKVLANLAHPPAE
T1 sequence (O60674 826-1132 limits assumed): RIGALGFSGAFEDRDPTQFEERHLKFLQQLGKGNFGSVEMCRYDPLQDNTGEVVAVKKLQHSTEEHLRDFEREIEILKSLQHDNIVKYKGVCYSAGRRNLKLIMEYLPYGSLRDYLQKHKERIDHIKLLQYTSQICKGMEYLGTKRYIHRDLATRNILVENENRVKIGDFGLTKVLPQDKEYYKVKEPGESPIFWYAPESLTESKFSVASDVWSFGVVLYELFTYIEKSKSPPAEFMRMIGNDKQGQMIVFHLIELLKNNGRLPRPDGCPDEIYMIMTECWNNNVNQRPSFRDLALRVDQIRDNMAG
T4 sequence (Q05397 376-1052 limits assumed): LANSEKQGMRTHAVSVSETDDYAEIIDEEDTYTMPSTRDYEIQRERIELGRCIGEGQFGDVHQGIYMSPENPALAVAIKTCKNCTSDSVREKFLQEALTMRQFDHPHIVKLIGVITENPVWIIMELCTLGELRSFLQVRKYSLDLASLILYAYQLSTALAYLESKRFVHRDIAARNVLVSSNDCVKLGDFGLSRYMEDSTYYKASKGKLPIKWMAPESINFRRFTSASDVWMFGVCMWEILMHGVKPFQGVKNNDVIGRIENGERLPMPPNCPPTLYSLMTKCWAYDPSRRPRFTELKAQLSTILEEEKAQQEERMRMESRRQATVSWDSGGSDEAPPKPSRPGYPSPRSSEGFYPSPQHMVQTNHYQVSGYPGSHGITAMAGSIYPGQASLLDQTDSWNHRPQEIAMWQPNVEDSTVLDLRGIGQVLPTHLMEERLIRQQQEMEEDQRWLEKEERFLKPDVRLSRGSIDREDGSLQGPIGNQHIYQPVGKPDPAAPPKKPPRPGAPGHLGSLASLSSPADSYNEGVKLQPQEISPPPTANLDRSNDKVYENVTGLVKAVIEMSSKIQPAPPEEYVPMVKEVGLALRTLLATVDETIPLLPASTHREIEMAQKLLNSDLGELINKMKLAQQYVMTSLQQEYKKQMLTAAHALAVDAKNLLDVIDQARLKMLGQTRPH
T6 sequence (P11309 whole entry): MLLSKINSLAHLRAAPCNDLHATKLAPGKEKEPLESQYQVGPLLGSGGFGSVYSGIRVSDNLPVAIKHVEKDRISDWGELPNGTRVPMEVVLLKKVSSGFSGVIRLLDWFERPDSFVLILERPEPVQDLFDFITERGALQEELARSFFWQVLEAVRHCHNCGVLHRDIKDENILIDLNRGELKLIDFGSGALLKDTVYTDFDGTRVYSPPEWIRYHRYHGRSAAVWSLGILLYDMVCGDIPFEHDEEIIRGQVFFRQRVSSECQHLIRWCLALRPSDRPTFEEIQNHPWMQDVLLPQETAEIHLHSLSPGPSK

Take `COc1cc(Nc2nc(N3CCC(O)CC3)nc3cc[nH]c(=O)c23)cc(OC)c1` [Compound 1, 4-(3,5-dimethoxyphenylamino)-2-(4-hydroxypiperidin-1-yl)pyrido[4,3,-d]pyrimidin-6(6H)-one]: the IC50 against truncated human JAK2 was found to be 59.4 nM; against truncated human FLT3 it was 242 nM; against truncated human RET it was 200 nM.

Regarding `COc1cc(Nc2nc(N3CCC(O)(CO)CC3)nc3cc[nH]c(=O)c23)cc(OC)c1` [Compound 2, 4-(3,5-dimethoxyphenylamino)-2-(4-hydroxy-4-(hydroxymethyl)piperidin-1-yl)pyrido[4,3d]pyrimidin-5(6H)-one], the figures for the IC50 against truncated human JAK2, on truncated human FLT3 and against truncated human RET were 73.8 nM, 368 nM and 363 nM, respectively.

As to `N[C@@H]1CCN(c2nc(Nc3cccc(C(F)(F)F)c3)c3c(=O)[nH]ccc3n2)C1` [Compound 7, (R)-2-(3-aminopyrrolidin-1-yl)-4-(3-(trifluoromethyl)phenylamino)pyrido[4,3-d]pyrimidin-5(6H)-one hydrochloride], the inhibition at 1 µM at PYK2 is 84.9%; on SYK it was 92.6%; on truncated human FAK, 83.5%; on human ZAP70, 42%; on human PIM1 it was 51.4%.

As to `N[C@@H]1CCCC[C@H]1Nc1nc(Nc2cc(C(F)(F)F)cc(C(F)(F)F)c2)c2c(=O)[nH]ccc2n1` [Compound 100, 2-((1R,2R)-2-aminocyclohexylamino)-4-(3,5-bis(trifluoromethyl)phenylamino)pyrido[4,3-d]pyrimidin-5(6H)-one], the inhibition at 1 µM at PYK2 turned out to be 88.4%; at SYK it was 37.7%; at truncated human FAK, 21.9%; at human ZAP70 it was 9%.

As to `O=c1[nH]ccc2nc(N[C@H]3CCNC3)nc(Nc3ccc(Oc4ccccc4)cc3)c12` [Compound 125, (S)-4-(phenoxyphenylamino)-2-(pyrrolidin-3-ylamino)pyrido[4,3-d]pyrimidin-5(6H)-one hydrochloride], the IC50 at truncated human JAK2 worked out at 24.9 nM; against truncated human FLT3, 0.6 nM; on truncated human RET it was 3.4 nM.

As for `O=c1[nH]ccc2nc(N3CCC(O)CC3)nc(Nc3ccc(N4CCOCC4)cc3)c12` [Compound 134, 2-(4-hydroxypiperidin-1-yl)-4-(4-morpholinophenylamino)pyrido[4,3-d]pyrimidin-5(6H)-one], the values for the IC50 against truncated human JAK2 and at truncated human RET were 3.7 nM and 7.3 nM, respectively.

Consider `COc1cc(Nc2nc(N3CCC(O)CC3)nc3cc[nH]c(=O)c23)cc(OC)c1OC` [Compound 149, 2-(4-hydroxypiperidin-1-yl)-4-(3,4,5-triemethoxyphenylamino)pyrido[4,3d]pyrimidin-5(6H)-one], for which the IC50 against truncated human JAK2 was 151 nM; against truncated human FLT3 it was 151 nM; against truncated human RET, 32.7 nM.

For the compound `COc1ccc(Nc2nc(N3CCC(O)CC3)nc3cc[nH]c(=O)c23)cc1C(F)(F)F` [Compound 150, 2-(4-hydroxypiperidin-1-yl)-4-(4-methoxy-3-(trifluoromethyl)phenylamino)pyrido[4,3d]pyrimidin-5(6H)-one], the IC50 against truncated human JAK2 turned out to be 65.3 nM; against truncated human FLT3, 106 nM; at truncated human RET it was 115 nM.

Consider `COc1ccc(Nc2nc(N3CCC(CO)CC3)nc3cc[nH]c(=O)c23)cc1C(F)(F)F` [Compound 151, 2-(4-(hydroxymethyl)piperidin-1-yl)-4-(4-methoxy-3-(trifluoromethyl)phenylamino)pyrido[4,3d]pyrimidin-5(6H)-one], for which the IC50 was 90.2 nM on PYK2, 8.2 nM on SYK and 217 nM on truncated human FAK. Further, the “percentage inhibition of TNF-α release compared with R406” value in [1] is on record as “greater than those exhibited by R406”.

As for `COc1ccc(Nc2nc(N3CCC(O)(CO)CC3)nc3cc[nH]c(=O)c23)cc1C(F)(F)F` [Compound 152, 2-(4-hydroxy-4-(hydroxymethyl)piperidin-1-yl)-4-(4-methoxy-3-(trifluoromethyl)phenylamino)pyrido[4,3-d]pyrimidin-5(6H)-one], the IC50 at PYK2 amounted to 84.3 nM; at SYK it was 2.7 nM; on truncated human FAK, 337 nM. For the same compound, the inhibition at 0.3 µM in experiment [1] (Homo sapiens, IgG stimulation, At 0.3 μM, THP-1, read-out: Inhibition of TNF-α Release (percentage inhibition)) was determined as 80.5%. Also, in experiment [1] (Homo sapiens, IgG stimulation, At 1 μM, THP-1, read-out: Inhibition of TNF-α Release (percentage inhibition)), the inhibition at 1 µM stood at 82.9%. Besides, the “percentage inhibition of TNF-α release compared with R406” value in [1] is on record as “higher percentage inhibition”.

In the case of `COc1cc(Nc2ncc(F)c(Nc3ccc4c(n3)NC(=O)C(C)(C)O4)n2)cc(OC)c1OC` [Compound R406, reference compound], the “Inhibition of TNF-α Release (percentage inhibition)” value amounted to 49.9% in experiment [1] (IgG stimulation, At 0.3 μM, THP-1) and 87.4% in experiment [1] (IgG stimulation, At 1 μM, THP-1).
